Data reported in patent US20250090466A1, “DRUG DELIVERY COMPOSITIONS AND DEVICES” (Ohio State Innovation Foundation, priority 2022, published 2025).

How the values were obtained:
[1] = Rose Bengal release from dense PCL capsules with silicone oil carriers into PBS; format: physicochemical; settings: Silikon 1000 in dense PCL capsule
[2] = assumed input value, ref (20); cited from earlier work

Structure (SMILES): O=C([O-])c1c(Cl)c(Cl)c(Cl)c(Cl)c1-c1c2cc(I)c(=O)c(I)c-2oc2c(I)c([O-])c(I)cc12.[Na+].[Na+] [Rose Bengal, Rose Bengal sodium salt]
- dissolution of Rose Bengal in hydrophobic silicone oil [1]: never dissolves in the oil
- RB diffusivity in PBS [2]: 4.8×10^−10 m^2 s^−1
